{
  "source": "patent US5622962A",
  "about": "“5α-reductase inhibitors” (priority 1995, dated 1997)",
  "key": {"[1]": {"target": "T1, Type I 5α-Reductase from Human Scalp (Homo sapiens, UniProt P18405)", "T1 construct": "Scalp punch biopsies from graft recipient sites were obtained from human hair transplant procedures; from tissue; host or cells: human scalp punch biopsies (hair transplant graft recipient sites), homogenate, 100,000×g pellet", "T1 sequence (P18405 1-259)": "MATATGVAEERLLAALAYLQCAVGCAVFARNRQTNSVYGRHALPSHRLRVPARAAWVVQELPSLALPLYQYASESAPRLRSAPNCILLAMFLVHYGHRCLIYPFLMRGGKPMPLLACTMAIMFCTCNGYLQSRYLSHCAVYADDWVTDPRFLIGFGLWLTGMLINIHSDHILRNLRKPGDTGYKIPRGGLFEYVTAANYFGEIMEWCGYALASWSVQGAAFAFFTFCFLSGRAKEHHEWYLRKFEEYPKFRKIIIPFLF", "experiment": "Human Type I 5α-reductase assay (conversion of [3H]-testosterone to 5α-reduced metabolites)", "type": "biochemical"}, "[2]": {"target": "T2, Type II 5α-Reductase from Human Prostate (Homo sapiens, UniProt P31213)", "T2 construct": "The same procedure as above was used for preparations using tissue from prostate surgery; from tissue; host or cells: human prostate tissue from surgery, homogenate, 100,000×g pellet", "T2 sequence (P31213 1-254)": "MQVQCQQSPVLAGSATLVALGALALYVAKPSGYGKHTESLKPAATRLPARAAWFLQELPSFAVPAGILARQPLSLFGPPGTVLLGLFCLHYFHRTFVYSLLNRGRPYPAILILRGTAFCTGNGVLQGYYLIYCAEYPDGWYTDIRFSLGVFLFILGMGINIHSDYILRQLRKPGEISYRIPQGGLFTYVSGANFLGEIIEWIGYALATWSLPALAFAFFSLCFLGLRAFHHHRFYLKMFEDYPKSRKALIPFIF", "experiment": "Human Type II 5α-reductase assay (conversion of [3H]-testosterone to 5α-reduced metabolites)", "type": "biochemical"}, "[3]": {"conditions": "pH 7.5, 0.3 μM, 50 nM [3H]-testosterone, pH 7.5, 25°, 180 min, compared to control reaction mixtures, read-out: percent inhibition of Type I AR"}, "[4]": {"conditions": "pH 5.5, 0.3 μM, sodium acetate pH 5.5, 25°, 30 min, compared to control reaction mixtures, read-out: percent inhibition of Type II AR"}},
  "note": "Like-named read-outs stand apart in the source and are kept apart here.",
  "data": [
    {"compound": "CN1C(=O)CC[C@]2(C)c3ccc(-c4ccc(O)c(C=O)c4)cc3CC[C@@H]12", "note": "[Example 58, (+)-(4aR)-(10bR)-4-methyl-8-(3-formyl-4-hydroxyphenyl)-10b-methyl-1,2,3,4,4a,5,6,10b-octahydrobenzo[f]quinolin-3-one]", "values": [
      {"measurement": "inhibition at 0.3 µM", "setting": "[1]; [3]", "result": 65, "unit": "%"},
      {"measurement": "inhibition at 0.3 µM", "setting": "[2]; [4]", "result": 24, "unit": "%"}
    ]},
    {"compound": "CN1C(=O)CC[C@]2(C)c3ccc(-c4c5ccccc5cc5ccccc45)cc3CC[C@@H]12", "note": "[Example 61, (+)-(4aR)-(10bR)-4-methyl-8-(9-anthracenyl)-10b-methyl-1,2,3,4,4a,5,6,10b-octahydrobenzo[f]quinolin-3-one]", "values": [
      {"measurement": "inhibition at 0.3 µM", "setting": "[1]; [3]", "result": 53, "unit": "%"},
      {"measurement": "inhibition at 0.3 µM", "setting": "[2]; [4]", "result": 36, "unit": "%"}
    ]},
    {"compound": "CN1C(=O)CC[C@]2(C)c3ccc(-c4ccc5cc(OCc6ccccc6)ccc5c4)cc3CC[C@@H]12", "note": "[Example 62, (+)-(4aR)-(10bR)-4-methyl-8-(2-[6-benzyloxy]naphthyl)-10b-methyl-1,2,3,4,4a,5,6,10b-octahydrobenzo[f]quinolin-3-one]", "values": [
      {"measurement": "inhibition at 0.3 µM", "setting": "[1]; [3]", "result": 45, "unit": "%"},
      {"measurement": "inhibition at 0.3 µM", "setting": "[2]; [4]", "result": 42, "unit": "%"}
    ]},
    {"compound": "CN1C(=O)CC[C@]2(C)c3ccc(-c4ccc(F)c5ccccc45)cc3CC[C@@H]12", "note": "[Example 64, (+)-(4aR)-(10bR)-4-methyl-8-(1-[4-fluoro]naphthyl)-10b-methyl-1,2,3,4,4a,5,6,10b-octahydrobenzo[f]quinolin-3-one]", "values": [
      {"measurement": "inhibition at 0.3 µM", "setting": "[1]; [3]", "result": 81, "unit": "%"},
      {"measurement": "inhibition at 0.3 µM", "setting": "[2]; [4]", "result": 22, "unit": "%"}
    ]},
    {"compound": "Cc1ccc(-c2ccc3c(c2)CC[C@H]2N(C)C(=O)CC[C@]32C)c2ccccc12", "note": "[Example 65, (+)-(4aR)-(10bR)-4-methyl-8-(1-[4-methyl]naphthyl)-10b-methyl-1,2,3,4,4a,5,6,10b-octahydrobenzo[f]quinolin-3-one]", "values": [
      {"measurement": "inhibition at 0.3 µM", "setting": "[1]; [3]", "result": 79, "unit": "%"},
      {"measurement": "inhibition at 0.3 µM", "setting": "[2]; [4]", "result": 42, "unit": "%"}
    ]},
    {"compound": "CN1C(=O)CC[C@]2(C)c3ccc(-c4ccc5c6c(cccc46)CC5)cc3CC[C@@H]12", "note": "[Example 66, (+)-(4aR)-(10bR)-4-methyl-8-(5-acenaphthenyl)-10b-methyl-1,2,3,4,4a,5,6,10b-octahydrobenzo[f]quinolin-3-one]", "values": [
      {"measurement": "inhibition at 0.3 µM", "setting": "[1]; [3]", "result": 67, "unit": "%"},
      {"measurement": "inhibition at 0.3 µM", "setting": "[2]; [4]", "result": 33, "unit": "%"}
    ]},
    {"compound": "CN1C(=O)CC[C@]2(C)c3ccc(-c4cc5ccccc5c5ccccc45)cc3CC[C@@H]12", "note": "[Example 67, (+)-(4aR)-(10bR)-4-methyl-8-(9-phenanthrenyl)-10b-methyl-1,2,3,4,4a,5,6,10b-octahydrobenzo[f]quinolin-3-one]", "values": [
      {"measurement": "inhibition at 0.3 µM", "setting": "[1]; pH 7.5, read-out: percent inhibition of Type I AR", "result": 22, "unit": "%"},
      {"measurement": "inhibition at 0.3 µM", "setting": "[2]; pH 5.5, read-out: percent inhibition of Type II AR", "result": 54, "unit": "%"}
    ]},
    {"compound": "CCCN(CC1CC1)c1ccc(-c2ccc3c(c2)CC[C@H]2N(C)C(=O)CC[C@]32C)c2ccccc12", "note": "[Example 68, (+)-(4aR)-(10bR)-4-methyl-8-(4-[N-propyl,N-cyclopropylmethylamino]-1-naphthyl)-10b-methyl-1,2,3,4,4a,5,6,10b-octahydrobenzo[f]quinolin-3-one]", "values": [
      {"measurement": "inhibition at 0.3 µM", "setting": "[1]; [3]", "result": 31, "unit": "%"},
      {"measurement": "inhibition at 0.3 µM", "setting": "[2]; [4]", "result": 37, "unit": "%"}
    ]},
    {"compound": "Cc1cccc(-c2ccc3c(c2)CC[C@H]2N(C)C(=O)CC[C@]32C)c1C", "note": "[Example 69, (+)-(4aR)-(10bR)-4-methyl-8-(2,3-dimethylphenyl)-10b-methyl-1,2,3,4,4a,5,6,10b-octahydrobenzo[f]quinolin-3-one]", "values": [
      {"measurement": "inhibition at 0.3 µM", "setting": "[1]; [3]", "result": 84, "unit": "%"},
      {"measurement": "inhibition at 0.3 µM", "setting": "[2]; [4]", "result": 6, "unit": "%"}
    ]},
    {"compound": "CN1C(=O)CC[C@]2(C)c3ccc(-c4ccc5ccccc5c4)cc3CC[C@@H]12", "note": "[Example 71, (+)-(4aR)-(10bR)-4-methyl-8-(2-naphthyl)-10b-methyl-1,2,3,4,4a,5,6,10b-octahydrobenzo[f]quinolin-3-one]", "values": [
      {"measurement": "inhibition at 0.3 µM", "setting": "[1]; [3]", "result": 80, "unit": "%"},
      {"measurement": "inhibition at 0.3 µM", "setting": "[2]; [4]", "result": 47, "unit": "%"}
    ]},
    {"compound": "Cc1ccc2ccccc2c1-c1ccc2c(c1)CC[C@H]1N(C)C(=O)CC[C@]21C", "note": "[Example 72, (+)-(4aR)-(10bR)-4-methyl-8-(1-[2-methyl]naphthyl)-10b-methyl-1,2,3,4,4a,5,6,10b-octahydrobenzo[f]quinolin-3-one]", "values": [
      {"measurement": "inhibition at 0.3 µM", "setting": "[1]; [3]", "result": 16, "unit": "%"},
      {"measurement": "inhibition at 0.3 µM", "setting": "[2]; [4]", "result": 26, "unit": "%"}
    ]},
    {"compound": "CN1C(=O)CC[C@]2(C)c3ccc(-c4cccc(Cl)c4Cl)cc3CC[C@@H]12", "note": "[Example 73, (+)-(4aR)-(10bR)-4-methyl-8-(2,3-dichlorophenyl)-10b-methyl-1,2,3,4,4a,5,6,10b-octahydrobenzo[f]quinolin-3-one]", "values": [
      {"measurement": "inhibition at 0.3 µM", "setting": "[1]; [3]", "result": 87, "unit": "%"},
      {"measurement": "inhibition at 0.3 µM", "setting": "[2]; [4]", "result": 16, "unit": "%"}
    ]}
  ]
}
